In brackets after ≈: the same amount, converted by molar mass. A value given as a limit tells only on which side of the number the result lay.

Assay in all cases: MIC, standard broth micro-dilution assay
Common to all, as to format: cell-based
Background: Broth dilution looks for growth in wells or tubes with falling amounts of substance.

Assay [1] concerns Entercoccus faecalis 2041. As for the experimental part: (§1) The formula I compounds have in vitro and in vivo activity against Gram-positive pathogenic bacteria. The MIC's were determined using a standard broth micro-dilution assay.
Assay [2] has as its system Entercoccus gallinarum 245. On the procedure: as §1
Another assay relates to Entercoccus faecalis 276. On the procedure: as §1

With `CNC(CC(C)C)C(=O)NC1C(=O)NC(CC(N)=O)C(=O)NC2C(=O)NC3C(=O)NC(C(=O)NC(C(=O)O)c4cc(O)cc(O)c4-c4cc3ccc4O)C(OC3CC(C)(N)C(O)C(C)O3)c3ccc(c(Cl)c3)Oc3cc2cc(c3OC2OC(CO)C(O)C(O)C2OC2CC(C)(NCc3cnc4ccccc4c3)C(O)C(C)O2)Oc2ccc(cc2Cl)C1O` (stereo not drawn) [Compound 28, 3-quinolylmethyl], the MIC (commonly the lowest concentration that inhibits growth of the organism) in assay [1] was 0.25 µg/mL (≈ 0.144 µM); in assay [2] it was 0.25 µg/mL (≈ 0.144 µM); against Entercoccus faecalis 276, at most 0.06 µg/mL.

As for `CNC(CC(C)C)C(=O)NC1C(=O)NC(CC(N)=O)C(=O)NC2C(=O)NC3C(=O)NC(C(=O)NC(C(=O)O)c4cc(O)cc(O)c4-c4cc3ccc4O)C(OC3CC(C)(N)C(O)C(C)O3)c3ccc(c(Cl)c3)Oc3cc2cc(c3OC2OC(CO)C(O)C(O)C2OC2CC(C)(NCc3ccc4ccccc4n3)C(O)C(C)O2)Oc2ccc(cc2Cl)C1O` (stereo not drawn) [Compound 30, 2-quinolylmethyl], the minimum inhibitory concentration (MIC) in assay [1] is at most 0.06 µg/mL; in assay [2], at most 0.06 µg/mL; in the assay on Entercoccus faecalis 276, 0.25 µg/mL (≈ 0.144 µM).

As for `CNC(CC(C)C)C(=O)NC1C(=O)NC(CC(N)=O)C(=O)NC2C(=O)NC3C(=O)NC(C(=O)NC(C(=O)O)c4cc(O)cc(O)c4-c4cc3ccc4O)C(OC3CC(C)(N)C(O)C(C)O3)c3ccc(c(Cl)c3)Oc3cc2cc(c3OC2OC(CO)C(O)C(O)C2OC2CC(C)(NCCc3ccc(Cc4ccccc4)cc3)C(O)C(C)O2)Oc2ccc(cc2Cl)C1O` (stereo not drawn) [Compound 35, 4 -benzylphenethyl], the MIC (in assay [1]; in assay [2]; in the assay on Entercoccus faecalis 276) was at most 0.06 µg/mL each time.

As for `CNC(CC(C)C)C(=O)NC1C(=O)NC(CC(N)=O)C(=O)NC2C(=O)NC3C(=O)NC(C(=O)NC(C(=O)O)c4cc(O)cc(O)c4-c4cc3ccc4O)C(OC3CC(C)(N)C(O)C(C)O3)c3ccc(c(Cl)c3)Oc3cc2cc(c3OC2OC(CO)C(O)C(O)C2OC2CC(C)(NCc3ccc(OCc4ccccc4)c(OCc4ccccc4)c3)C(O)C(C)O2)Oc2ccc(cc2Cl)C1O` (stereo not drawn) [Compound 53], the MIC in assay [1] stood at 1 µg/mL (≈ 0.528 µM); in assay [2], 2 µg/mL (≈ 1.06 µM); against Entercoccus faecalis 276 it was 8 µg/mL (≈ 4.22 µM).

In the case of `CNC(CC(C)C)C(=O)NC1C(=O)NC(CC(N)=O)C(=O)NC2C(=O)NC3C(=O)NC(C(=O)NC(C(=O)O)c4cc(O)cc(O)c4-c4cc3ccc4O)C(OC3CC(C)(N)C(O)C(C)O3)c3ccc(c(Cl)c3)Oc3cc2cc(c3OC2OC(CO)C(O)C(O)C2OC2CC(C)(NCc3ccc(-c4ccc(OC)cc4)cc3)C(O)C(C)O2)Oc2ccc(cc2Cl)C1O` (stereo not drawn) [Compound 54, 4-[4-methoxyphenyl]benzyl], the MIC was at most 0.06 µg/mL in assay [1], 0.5 µg/mL (≈ 0.28 µM) in assay [2] and 1 µg/mL (≈ 0.559 µM) against Entercoccus faecalis 276.

As to `CNC(CC(C)C)C(=O)NC1C(=O)NC(CC(N)=O)C(=O)NC2C(=O)NC3C(=O)NC(C(=O)NC(C(=O)O)c4cc(O)cc(O)c4-c4cc3ccc4O)C(OC3CC(C)(N)C(O)C(C)O3)c3ccc(c(Cl)c3)Oc3cc2cc(c3OC2OC(CO)C(O)C(O)C2OC2CC(C)(NCCc3cccc(Oc4ccccc4)c3)C(O)C(C)O2)Oc2ccc(cc2Cl)C1O` (stereo not drawn) [Compound 62, 3-phenoxyphenethyl], the values for the minimum inhibitory concentration (MIC) (in assay [1]; in assay [2]; in the assay with Entercoccus faecalis 276) were at most 0.06 µg/mL, 4 µg/mL (≈ 2.24 µM) and 0.5 µg/mL (≈ 0.28 µM), respectively.

With `CNC(CC(C)C)C(=O)NC1C(=O)NC(CC(N)=O)C(=O)NC2C(=O)NC3C(=O)NC(C(=O)NC(C(=O)O)c4cc(O)cc(O)c4-c4cc3ccc4O)C(OC3CC(C)(N)C(O)C(C)O3)c3ccc(c(Cl)c3)Oc3cc2cc(c3OC2OC(CO)C(O)C(O)C2OC2CC(C)(NCc3ccc(-c4ccc([N+](=O)[O-])cc4)cc3)C(O)C(C)O2)Oc2ccc(cc2Cl)C1O` (stereo not drawn) [Compound 64, 4-[4-nitrophenyl]benzyl], the figures for the MIC (in assay [1]; in assay [2]; with Entercoccus faecalis 276) were at most 0.06 µg/mL, 2 µg/mL (≈ 1.11 µM) and 0.5 µg/mL (≈ 0.277 µM), respectively.

On to `CNC(CC(C)C)C(=O)NC1C(=O)NC(CC(N)=O)C(=O)NC2C(=O)NC3C(=O)NC(C(=O)NC(C(=O)O)c4cc(O)cc(O)c4-c4cc3ccc4O)C(OC3CC(C)(N)C(O)C(C)O3)c3ccc(c(Cl)c3)Oc3cc2cc(c3OC2OC(CO)C(O)C(O)C2OC2CC(C)(NCc3ccc4cc(OC)ccc4c3)C(O)C(C)O2)Oc2ccc(cc2Cl)C1O` (stereo not drawn) [Compound 65, 6-methoxy-2-naphthylmethyl], for which the MIC is at most 0.06 µg/mL in assay [1], 4 µg/mL (≈ 2.27 µM) in assay [2] and 0.5 µg/mL (≈ 0.284 µM) against Entercoccus faecalis 276.

`CNC(CC(C)C)C(=O)NC1C(=O)NC(CC(N)=O)C(=O)NC2C(=O)NC3C(=O)NC(C(=O)NC(C(=O)O)c4cc(O)cc(O)c4-c4cc3ccc4O)C(OC3CC(C)(N)C(O)C(C)O3)c3ccc(c(Cl)c3)Oc3cc2cc(c3OC2OC(CO)C(O)C(O)C2OC2CC(C)(NCc3cc(C)cs3)C(O)C(C)O2)Oc2ccc(cc2Cl)C1O` (stereo not drawn) [Compound 66, 3-methyl-5-thienylmethyl]: the minimum inhibitory concentration (MIC) in assay [1] is at most 0.06 µg/mL; in assay [2], 8 µg/mL (≈ 4.7 µM); in the assay with Entercoccus faecalis 276, at most 0.06 µg/mL.

For `CNC(CC(C)C)C(=O)NC1C(=O)NC(CC(N)=O)C(=O)NC2C(=O)NC3C(=O)NC(C(=O)NC(C(=O)O)c4cc(O)cc(O)c4-c4cc3ccc4O)C(OC3CC(C)(N)C(O)C(C)O3)c3ccc(c(Cl)c3)Oc3cc2cc(c3OC2OC(CO)C(O)C(O)C2OC2CC(C)(NCc3ccc(-c4ccccc4)s3)C(O)C(C)O2)Oc2ccc(cc2Cl)C1O` (stereo not drawn) [Compound 67, 5-phenyl-2-thienylmethyl], the minimal inhibitory concentration (MIC) was at most 0.06 µg/mL in assay [1], 2 µg/mL (≈ 1.13 µM) in assay [2] and at most 0.06 µg/mL against Entercoccus faecalis 276.

As for `CNC(CC(C)C)C(=O)NC1C(=O)NC(CC(N)=O)C(=O)NC2C(=O)NC3C(=O)NC(C(=O)NC(C(=O)O)c4cc(O)cc(O)c4-c4cc3ccc4O)C(OC3CC(C)(N)C(O)C(C)O3)c3ccc(c(Cl)c3)Oc3cc2cc(c3OC2OC(CO)C(O)C(O)C2OC2CC(C)(NCCc3ccc(OCc4ccccc4)cc3)C(O)C(C)O2)Oc2ccc(cc2Cl)C1O` (stereo not drawn) [Compound 68, 4-benzyloxyphenethyl], the MIC in assay [1] was at most 0.06 µg/mL; in assay [2], 4 µg/mL (≈ 2.22 µM); against Entercoccus faecalis 276, at most 0.06 µg/mL.

In the case of `CNC(CC(C)C)C(=O)NC1C(=O)NC(CC(N)=O)C(=O)NC2C(=O)NC3C(=O)NC(C(=O)NC(C(=O)O)c4cc(O)cc(O)c4-c4cc3ccc4O)C(OC3CC(C)(N)C(O)C(C)O3)c3ccc(c(Cl)c3)Oc3cc2cc(c3OC2OC(CO)C(O)C(O)C2OC2CC(C)(NCc3ccc(Oc4ccccc4[N+](=O)[O-])cc3)C(O)C(C)O2)Oc2ccc(cc2Cl)C1O` (stereo not drawn) [Compound 70, 4-[2-nitrophenoxy]benzyl], the results for the minimal inhibitory concentration (MIC) (in assay [1]; in assay [2]; against Entercoccus faecalis 276) were at most 0.06 µg/mL, 2 µg/mL (≈ 1.1 µM) and at most 0.06 µg/mL, respectively.

In the case of `CNC(CC(C)C)C(=O)NC1C(=O)NC(CC(N)=O)C(=O)NC2C(=O)NC3C(=O)NC(C(=O)NC(C(=O)O)c4cc(O)cc(O)c4-c4cc3ccc4O)C(OC3CC(C)(N)C(O)C(C)O3)c3ccc(c(Cl)c3)Oc3cc2cc(c3OC2OC(CO)C(O)C(O)C2OC2CC(C)(NCc3ccc(-c4ccc(OC)cc4)s3)C(O)C(C)O2)Oc2ccc(cc2Cl)C1O` (stereo not drawn) [Compound 71, 5-[4-methoxyphenyl]-2-thienylinethyl], the minimal inhibitory concentration (MIC) was 1 µg/mL (≈ 0.557 µM) in assay [1], 8 µg/mL (≈ 4.46 µM) in assay [2] and 2 µg/mL (≈ 1.11 µM) against Entercoccus faecalis 276.

Turning to `CNC(CC(C)C)C(=O)NC1C(=O)NC(CC(N)=O)C(=O)NC2C(=O)NC3C(=O)NC(C(=O)NC(C(=O)O)c4cc(O)cc(O)c4-c4cc3ccc4O)C(OC3CC(C)(N)C(O)C(C)O3)c3ccc(c(Cl)c3)Oc3cc2cc(c3OC2OC(CO)C(O)C(O)C2OC2CC(C)(NCc3ccc(OC(F)F)cc3)C(O)C(C)O2)Oc2ccc(cc2Cl)C1O` (stereo not drawn) [Compound 72, 4-difluormethoxybenzyl], the MIC in assay [1] was at most 0.06 µg/mL; in assay [2], 4 µg/mL (≈ 2.29 µM); in the assay with Entercoccus faecalis 276, at most 0.06 µg/mL.

Turning to `CNC(CC(C)C)C(=O)NC1C(=O)NC(CC(N)=O)C(=O)NC2C(=O)NC3C(=O)NC(C(=O)NC(C(=O)O)c4cc(O)cc(O)c4-c4cc3ccc4O)C(OC3CC(C)(N)C(O)C(C)O3)c3ccc(c(Cl)c3)Oc3cc2cc(c3OC2OC(CO)C(O)C(O)C2OC2CC(C)(NCc3ccc(OCCOCCCl)cc3)C(O)C(C)O2)Oc2ccc(cc2Cl)C1O` (stereo not drawn) [Compound 75], the MIC is at most 0.06 µg/mL in assay [1], 4 µg/mL (≈ 2.22 µM) in assay [2] and at most 0.06 µg/mL against Entercoccus faecalis 276.

Take `CNC(CC(C)C)C(=O)NC1C(=O)NC(CC(N)=O)C(=O)NC2C(=O)NC3C(=O)NC(C(=O)NC(C(=O)O)c4cc(O)cc(O)c4-c4cc3ccc4O)C(OC3CC(C)(N)C(O)C(C)O3)c3ccc(c(Cl)c3)Oc3cc2cc(c3OC2OC(CO)C(O)C(O)C2OC2CC(C)(NCc3ccc(C)c(C)c3)C(O)C(C)O2)Oc2ccc(cc2Cl)C1O` (stereo not drawn) [Compound 76, 3,4-dimethylbenzyl]: the minimal inhibitory concentration (MIC) in assay [1] was at most 0.06 µg/mL; in assay [2], 4 µg/mL (≈ 2.34 µM); in the assay on Entercoccus faecalis 276, at most 0.06 µg/mL.

For the molecule `CNC(CC(C)C)C(=O)NC1C(=O)NC(CC(N)=O)C(=O)NC2C(=O)NC3C(=O)NC(C(=O)NC(C(=O)O)c4cc(O)cc(O)c4-c4cc3ccc4O)C(OC3CC(C)(N)C(O)C(C)O3)c3ccc(c(Cl)c3)Oc3cc2cc(c3OC2OC(CO)C(O)C(O)C2OC2CC(C)(NCc3cccc(OC(C)=O)c3)C(O)C(C)O2)Oc2ccc(cc2Cl)C1O` (stereo not drawn) [Compound 77, 3-acetoxybenzyl], the minimum inhibitory concentration (MIC) (in assay [1]; in assay [2]; in the assay on Entercoccus faecalis 276) was 0.25 µg/mL (≈ 0.144 µM) each time.

On to `CNC(CC(C)C)C(=O)NC1C(=O)NC(CC(N)=O)C(=O)NC2C(=O)NC3C(=O)NC(C(=O)NC(C(=O)O)c4cc(O)cc(O)c4-c4cc3ccc4O)C(OC3CC(C)(N)C(O)C(C)O3)c3ccc(c(Cl)c3)Oc3cc2cc(c3OC2OC(CO)C(O)C(O)C2OC2CC(C)(NCc3ccc(C#Cc4ccccc4)cc3)C(O)C(C)O2)Oc2ccc(cc2Cl)C1O` (stereo not drawn) [Compound 79, 4-phenylethynylbenzyl], for which the minimum inhibitory concentration (MIC) (in assay [1]; in assay [2]; with Entercoccus faecalis 276) was at most 0.06 µg/mL throughout.
